This assay addresses T1, CmPCYA (Cyanidioschyzon merolae, UniProt M1V4R9).
T1 construct: gene CYME_CMG110C; N-terminal GST-tag, pGEX-6P-1, co-expressed with pGro7 chaperones in E. coli BL21(DE3)
T1 sequence (M1V4R9 1-325): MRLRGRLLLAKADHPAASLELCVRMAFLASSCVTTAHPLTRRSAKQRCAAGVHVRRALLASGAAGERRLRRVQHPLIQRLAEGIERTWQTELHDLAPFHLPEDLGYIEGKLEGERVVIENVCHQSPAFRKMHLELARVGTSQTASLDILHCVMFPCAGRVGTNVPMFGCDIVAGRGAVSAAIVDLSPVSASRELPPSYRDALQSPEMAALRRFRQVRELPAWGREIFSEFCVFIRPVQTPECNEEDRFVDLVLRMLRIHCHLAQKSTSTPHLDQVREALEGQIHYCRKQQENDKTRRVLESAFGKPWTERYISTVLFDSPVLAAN
The assay can be described thus: anaerobic bilin reductase assay, HPLC. The assay is classed as biochemical. The following applies: BV as substrate; PetF, FNR, NADPH-regenerating system; 20 °C.

Turning to `CC=C1C(=Cc2[nH]c(C=C3N=C(C=C4NC(=O)C(CC)=C4C)C(C)=C3CCC(=O)O)c(CCC(=O)O)c2C)NC(=O)C1C` (stereo not shown) [PCB], the “anaerobic bilin reductase assay, HPLC” value was “catalyzing the reduction of BV to PCB (Fig. 7B: CmPCYA)”.

The record behind these values is publication PMC13193486, “Phycocyanobilin biosynthesis in Galdieria sulphuraria requires isomerization of phycoerythrobilin synthesized by bilin reductases” (The Febs Journal, 2026).
